Consider three compounds from ChEMBL document CHEMBL1148057, “1'-(2-Phenyl-ethylene)-ditryptophenaline, a new dimeric diketopiperazine from Aspergillus flavus” (J Nat Prod, 1994).

Assay [1] deals with T1, Substance-P receptor (Homo sapiens, UniProt P25103). Kind of assay: Inhibition of substance P receptor.
In assay [2] the target is T1, Substance-P receptor. Kind of assay: Inhibition of substance P receptor at 100 uM.

Activity calls are given as the source filed them. The rule behind the calls is not given here.

T1 sequence (P25103 whole entry): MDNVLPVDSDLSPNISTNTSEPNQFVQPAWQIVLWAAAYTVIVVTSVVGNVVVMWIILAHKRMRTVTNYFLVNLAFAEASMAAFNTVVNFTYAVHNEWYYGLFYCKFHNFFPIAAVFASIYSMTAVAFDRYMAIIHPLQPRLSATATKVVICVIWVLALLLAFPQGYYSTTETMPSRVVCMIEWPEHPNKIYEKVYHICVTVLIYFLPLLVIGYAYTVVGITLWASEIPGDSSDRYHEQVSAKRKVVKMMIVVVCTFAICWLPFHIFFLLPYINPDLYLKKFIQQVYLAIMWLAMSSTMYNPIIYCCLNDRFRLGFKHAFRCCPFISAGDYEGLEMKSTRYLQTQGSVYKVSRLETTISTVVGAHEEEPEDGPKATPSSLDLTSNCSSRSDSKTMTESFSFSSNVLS

A word on the IC50: it is the concentration at which inhibition is half-maximal. Higher therefore signals weaker potency. Compound `CN1C(=O)[C@@H]2C[C@@]3([C@@]45C[C@H]6C(=O)N(C)[C@@H](Cc7ccccc7)C(=O)N6[C@@H]4Nc4ccccc45)c4ccccc4N[C@H]3N2C(=O)[C@@H]1Cc1ccccc1` [DITRYPTOPHENALINE] yielded a half-maximal inhibitory concentration (IC50) in assay [1] of 12 µM.

For `CN1C(=O)[C@@H]2C[C@@]3([C@@]45C[C@H]6C(=O)N(C)[C@@H](Cc7ccccc7)C(=O)N6[C@@H]4N(/C=C/c4ccccc4)c4ccccc45)c4ccccc4N[C@H]3N2C(=O)[C@@H]1Cc1ccccc1`, the result in assay [2] was inactive.

Regarding `O=C1N[C@@H](Cc2ccccc2)C(=O)N2[C@H]3Nc4ccccc4[C@@]3([C@]34C[C@H]5C(=O)N[C@@H](Cc6ccccc6)C(=O)N5[C@H]3Nc3ccccc34)C[C@@H]12`, inhibition in assay [1] was half-maximal at 0.23 µM (IC50).
